Target: T1, human dihydrofolate reductase (hDHFR) (Homo sapiens, UniProt P00374)
T1 sequence (P00374 1-187): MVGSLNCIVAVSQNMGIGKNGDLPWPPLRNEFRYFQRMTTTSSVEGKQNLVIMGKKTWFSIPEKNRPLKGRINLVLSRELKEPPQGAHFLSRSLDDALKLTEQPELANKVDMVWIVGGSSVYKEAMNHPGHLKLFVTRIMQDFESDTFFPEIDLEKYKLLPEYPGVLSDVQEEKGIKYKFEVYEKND
Experiment: hDHFR inhibition assay
Format: biochemical

Q: With `CN(C)c1ccc(C=NNC(=O)CSc2nc3sc4c(c3c(=O)n2-c2ccccc2)CCCCC4)cc1` [compound 23, N′-[4-(Dimethylamino)benzylidene]-2-[(4-oxo-3-phenyl-6,7,8,9-tetrahydro-3H-cyclohepta[4,5]thieno[2,3-d]pyrimidin-2-yl)thio]acetohydrazide] as the molecule, how does the IC50 read?
A: 280 nM
